Data published in patent publication US20190262343A1, “WOUND HEALING USING BRAF INHIBITORS” (THE REGENTS OF THE UNIVERSITY OF CALIFORNIA, priority 2016, published 2019).

What was measured:
[1] = tested on: 2.5 cm dorsal skin wound; test: Incisional dorsal wound model, wound tensile strength (WTS); assay type: in vivo, C3Hf/Kam (H2-k) female mice; settings: for improvement in WTS compared to vehicle-treated controls: topical every other day, seven doses, day 14
Description: The skin wounds were surgically clipped on day 0 and mice were followed until day 14 (FIGS. 5A-5B). […] On day 14, the mice were euthanized and the skin containing the wound was removed and mounted in 20 mm strips with a horizontal wound sample in each strip.

[2] = tested on: 6-mm round excisional wounds; test: Excisional skin wound splinting model, wound closure and histology; assay type: in vivo, Balb/c mice
Description: Dorsal skin wounds from CH3 mice treated with vemurafenib suspension or DMSO in saline control suspension were excised at day 2, 6 and 14. They were fixed in 10% neutral buffered formalin and embedded in paraffin and stained with hematoxylin and eosin (H&E) using standard methods. Balb/c mice were sacrificed at day 2, 6 and 14 with isoflurane overdose. Two 8-mm round pieces of tissue were collected from each Balbc/c mouse containing the whole wound area and the surrounding tissue and skin, cut precisely in half at the midline of the wound and fixed in 1% paraformaldehyde (PFA) for 16-18 hours at 4° C., dehydrated in 70% EtOH, and then paraffin embedded. Sections were cut at 4 μm, deparaffinized with xylene and descendant ethanol, and then incubated in 3% H2O2 for 10 minutes. After a wash in distilled water, the slides were incubated for 25 minutes in citrate buffer pH6 (Invitrogen) at 95° C. using a vegetable steamer. The slides were brought to room temperature, rinsed in PBST (Phosphate Buffered Saline containing 0.05% Tween-20), and then incubated at room temperature with 1:100 anti-mouse Ki-67 antibody (DAKO, Carpinteria, Calif.) for 1 hour and 1:10 phospho-ERK Ab (Cell Signaling), overnight. The Ki67 stained slides were rinsed with PBST and incubated at room temperature with 1:200 polyclonal Rabbit anti-rat immunoglobulin/Biotinylated Ab (Dako, E0468) for 30 minutes. All the slides were rinsed with PBST, and incubated with Dako EnVision+ System-HRP Labelled Polymer Anti-Rabbit (Dako) at room temperature for 30 minutes. After a rinse with PBST, the slides were incubated with DAB (3,3′-Diaminobenzidine) for visualization. Subsequently, the slides were washed in tap water, counterstained with Harris' Hematoxylin, dehydrated in ethanol, and mounted with media. The imaging and quantification of the cell-based immunohistochemistry, was performed with the HALO Next Generation Imaging analysis software (Indica Labs; Corrales, N. Mex.). HALO measures and reports individual cell data maintaining an interactive link between cell metrics and cell imagery. The number of pERK+, Ki67+ and PECAM-1+ cells was automatically counted with the HALO software. Three 20× fields of view from each side of the wound were automatically counted for pERK and Ki67 stains. PECAM-1+ and CD68+ cells were automatically counted on each side of the wound edges where the granulation tissue starts (1 mm length each side) on the excisional wound splinting model, and in the entire wound area on the incisional wound model.

[3] = tested on: pERK and Ki67 in HEKa cells; test: pERK and Ki67 by western blot and phosphoflow cytometry, HEKa; assay type: cell-based, human; settings: 1.5 μM vemurafenib vs vehicle
Procedure: HEKa and M249 cells treated with a concentration of 1.5 μM of vemurafenib or vehicle control were fixed with formaldehyde to a final concentration of 1.6%, and permeabilized using methanol (90%). Then, they were washed in staining buffer (sterile PBS, 0.5% BSA, 0.01% sodium azide, NaN3), and stained with Alexa Flour 647 mouse anti-ERK1/2 (pT202/pY204) antibody and PE mouse anti-human Ki67 antibody (BD Pharmingen, San Jose, Calif.) as previously described by Comin-Anduix, et al., PLoS One 5:e12711 (2010). After incubation, cells were washed again and resuspended in 3 ml of staining buffer. A total of 30,000 cellular events were acquired for analysis. Data was analyzed using FlowJo (Tree Star Inc., Ashland, Oreg.).
M249 and HEKa cells were treated in duplicate with a concentration of 1.5 μM of vemurafenib or vehicle control. Western blotting was performed as described previously by Escuin-Ordinas, et al., Mol. Oncol. 8:250-60 (2014).
Using these cultures, MAPK signaling was analyzed by western blot (FIGS. 2G-2H); and pERK and cell proliferation were analyzed by quantitative intracellular flow (phosphoflow) cytometry (FIG. 2I and FIGS. 4A-4B). […] Furthermore, in the presence of vemurafinab the proliferative marker Ki67 decreased in M249 melanoma cells while it increased in HEKa cells (FIGS. 21-2J).

In the case of `CCCS(=O)(=O)Nc1ccc(F)c(C(=O)c2c[nH]c3ncc(-c4ccc(Cl)cc4)cc23)c1F` [vemurafenib], the “improvement in WTS compared to vehicle-treated controls” value ([1]; Experiment #1) is reported as 52%, the “improvement in WTS compared to vehicle-treated controls” value ([1]; Experiment #2) is reported as 33% and the “improvement in WTS compared to vehicle-treated controls” value ([1]; Experiment #3) is reported as 42%. The “improvement in WTS vs. vehicle control” value ([1]; separate assay, Experiment #4, p=0.01) was 37%, the “percentage of wound closure compared to vehicle” value ([2]; 2 mg on days 0, 2 and 4, measured on days 2, 6 and 14) was “significantly higher percentage of wound closure” and the “re-epithelialization in excisional wounds” value ([2]; compared to controls) was “re-epithelialization by day 6”. The “number of pERK+ and Ki67+ cells in the wounds” value ([2]; day 14, compared to control, p=0.02) was “statistically significantly higher”, the “skin surface integrity in excisional wounds” value ([2]; delayed in the control group) was “re-established by day 14” and the “proliferative marker Ki67 in HEKa” value [3] was “increased”. The “pERK and cell cycle progression in HEKa” value ([3]; p=0.0225) was “paradoxical increase in pERK and cell cycle progression”.
